Measurements published in patent US20260091030A1, “HIGH-DOSE NALOXONE FORMULATION” (SRI INTERNATIONAL, priority 2022, published 2026).

Key:
[1] = Initial pH stability of Naloxone hydrochloride in 10 mM buffers pH 3.0-10.6, 7 days (concentration, pH, Noroxymorphone by HPLC); format: physicochemical
Description: FIG. 3 is a graph that depicts the concentration of Naloxone in various buffers at t=0 and t=7. The t=7 represents samples stored at either 40° C. or 60° C. for up to 7 days. […] The 15 mg/ml was chosen for pH stability studies and a final formulation of Naloxone is planned to be at 10 mg/ml strength. The maximum possible solubility of drug substance at various buffers will be performed in a “pH solubility” study. […] Naloxone precipitated in solution maintained at pH 7.4-10.6. The glycine-sodium hydroxide buffer system fared slightly better, however not as well as the buffers that maintained pH at 3.0-6.5. It is likely that buffer strength higher than 10 mM is required for pH 7.0-11 buffer systems. […] Based on the pKa values, solubility of Naloxone is expected to be higher at lower pH conditions.
FIG. 4 is a graph that depicts the change in pH of Naloxone in various buffers t=0 and t=7. The t=7 represents samples stored at either 40° C. or 60° C. for up to 7 days. FIG. 4 follows the change in pH for the buffered naloxone samples as a function of time and temperature of storage. It appears that higher pH instability and higher temperature degradations are concerns for Naloxone formulations. Optimum buffering of Naloxone appears to occur at pH 3-4.6; at the molarity tested.
FIG. 5 is a graph that depicts pH-stability of Naloxone after 7 days at room temperature by showing Naloxone and Noroxymorphone concentrations in various buffers assayed by HPLC. Temperature and duration of sample storage are at ambient temperature for 7 days.
FIG. 6 is a graph that depicts pH-stability of Naloxone after 7 days at 40° C. and 75% relative humidity by showing Naloxone and Noroxymorphone concentrations in various buffers assayed by HPLC. Temperature and duration of sample storage are at 40° C. and 75% relative humidity for 7 days. FIG. 6 follows up on the conclusions drawn from the experiment conducted that underlies FIG. 5. Raising the temperature incudes greater formation of Noroxymorphone, and this effect is more pronounced in formulations with a higher pH.
FIG. 7 is a graph that depicts pH-stability of Naloxone after 7 days at 60° C. by showing Naloxone and Noroxymorphone concentrations in various buffers assayed by HPLC. Temperature and duration of sample storage are at 60° C. and humidity was not maintained for 7 days. At even higher temperatures, Noroxymorphone was detected in all formulations across all respective pHs.
Buffers used in intramuscular formulations range from 1-100 mM, but lower molar strengths are known to cause less myotoxicity resulting in less “pain” at the site of injection (Napaporn et al., Pharm. Dev. Technol. 5(1): 123-30 (2000). For the purpose of these initial pH stability experiment, a buffer strength of 10 mM was chosen. Buffers tested ranged from pH 3.0-10.6. Intramuscular formulations below pH 3.0 are extremely rare, owing to excessive acidity which can cause a burning sensation. Table 1 lists the various buffer systems used for this study.
Buffers were created and mixed to a concentration of 10 mM with the pH stabilized. […] Buffers tested ranged from pH 3.0-10.6. Intramuscular formulations below pH 3.0 are rare due to discomfort associated with the injection site.

[2] = pH-stability with and without buffering agents under nitrogen gas overlay / excipient compatibility study; format: physicochemical
Description: FIG. 16 is a graph showing pH fluctuations in samples under nitrogen gas overlay, specifically change in pH of Naloxone solutions in water and buffers at pH 3.0 and 4.6 on Day 0 and Day 7. The Day 7 represents samples stored at either room temperature, 40° C. and 75% relative humidity or 60° C. or 25° C. and 60% relative humidity (in amber vials) for up to 7 days.
Samples prepared for pH-Stability of naloxone with and without buffering agents (citrate and acetate at pH 3.0 and pH 4.6 respectively) under nitrogen gas overlay were left at 40° C.±2° C./75%±5% relative humidity (RH) and at 60° C. for a total of 5 weeks for this excipient compatibility study. A stability storage chamber was used for 40° C.±2° C./75%±5% while a regular oven was used for the 60° C. samples. Briefly, naloxone samples were prepared in 20 ml of water for injection or freshly prepared 10 mM citrate buffer and/or acetate buffer in 25 ml volumetric flask. […] The pH of the naloxone solutions was adjusted to 3.0 and 4.6 with 0.1N HCl solution. Samples were diluted up to the 25 ml mark with water for injection or citrate buffer pH 3.0 or acetate buffer pH 4.6. These naloxone solutions were filtered using 0.22 μm, 13 mm, PVDF (Pall scientific) syringe filters and pH of the filtrate was measured. The filtered solution was aliquoted into 2.0 ml clear, sterile, Type-I glass vials and closed with 13 mm red rubber closures crimped with aluminum blue flip cap seals. All vials were overlaid with nitrogen gas (filtered with 0.22u PTFE, Acro®50 Vent In-Line filter, Pall scientific) before sealing and stored at 40° C.±2° C./75%±5% relative humidity (RH) or 60° C. for 5 weeks. These samples were evaluated for pH, assay and impurities of naloxone at intervals of T=0, 1 week and T=5 weeks. […] These samples were analyzed at T=2 weeks and T=5 weeks for pH, assay and impurities for naloxone. […]
The pH and assay of naloxone for excipient compatibility samples stored at 40° C.±2° C./75%±5% RH and 60° C. on T=0-day, 1 week and T=5 weeks were evaluated.

physchem = settings: thermodynamic from solid

## C=CCN1CC[C@]23c4c5ccc(O)c4O[C@H]2C(=O)CC[C@@]3(O)[C@H]1C5.Cl [Naloxone hydrochloride, (−)-17-Allyl-4, 5 α-epoxy-3,14-dihydroxymorphinan-6-one hydrochloride]
[1]; 10 mM buffer systems at pH 7.4 (sodium phosphate monobasic/dibasic) and pH 10.6 (carbonate-bicarbonate)
  dissolution at 15 mg/ml in buffer: did not dissolve efficiently
[1]; 10 mM buffers, up to 7 days at 40° C. or 60° C.
  pH of optimum buffering: 3-4.6
[1]; 7 days at ambient temperature, pH 7.4 sodium phosphate and pH 10 glycine buffer versus pH lower than 6.5
  Noroxymorphone detected by HPLC: Greater amounts of Noroxymorphone were detected
[1]; citrate buffer at pH 3, 7 days at 60° C.
  Noroxymorphone formation by HPLC: significantly less Noroxymorphone formation than all of the other formulations tested
[1]; solution maintained at pH 7.4-10.6
  precipitation in solution: precipitated
[2]; 10 mM citrate and acetate buffers at pH 3.0 and 4.6, nitrogen overlay, seven days at room temperature, 40° C./75% RH, 60° C., 25° C./60% RH (amber vials)
  change in pH: no change in pH
[2]; without buffers at pH 3.0, nitrogen overlay, seven days at room temperature, 40° C./75% RH, 60° C., 25° C./60% RH (amber vials)
  change in pH: no change in pH
[2]; without buffers at pH 4.6, nitrogen overlay, seven days
  change in pH: increased
physchem; pH 5, aqueous buffer
  solubility: 204 mg/mL
physchem; pH 10, aqueous buffer
  solubility: 90.5 mg/mL
